Key:
Format in all cases: in vivo
[1] = system: Echinochloa oryzacola Vasing.; experiment: Test Example 1: herbicidal activity, application before weed generation in submerged conditions; settings: Application herbicide amount 320 g/ha; Seventeenth Table
Outline: (§1)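 Alluvial soil in Wagner pots flooded to 4 cm water depth; weed seeds sown and 2.5 leaf stage rice seedlings transplanted. Emulsion diluted in water applied to water surface on sowing day at stated g/ha. Greenhouse 25° C. to 30° C.; effects scored 0–5 by herbicidal ratio after three weeks.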

Monochoria vaginalis = experiment: as above; settings: Application herbicide amount 320 g/ha; Seventeenth Table
Outline: as §1

Scirpus juncoides = experiment: as above; settings: Application herbicide amount 320 g/ha; Seventeenth Table
Outline: as §1

[2] = system: transplanted Oryza sativa; experiment: Test Example 1: effect on crop, application before weed generation in submerged conditions; settings: Application herbicide amount 320 g/ha; Seventeenth Table
Outline: as §1

Abutilon theophrasti = experiment: Test Example 4: herbicidal effect by application to foliage (diluvial soil, plastic box); settings: Application herbicide amount 320 g/ha; foliage application
Outline: (§2)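 Scores run from 0 (herbicidal ratio ≤5%) to 5 (≥90%, almost fully withered) and were assessed three weeks after foliar spraying. Seedlings had been raised for 14 days at 25-30° C in sterilized diluvial soil before treatment, with the emulsion diluted in water to the stated g/ha dose.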

Alopecurus myosuroides = experiment: as above; settings: Application herbicide amount 320 g/ha; foliage application
Outline: as §2

Amaranthus retroflexus = experiment: as above; settings: Application herbicide amount 320 g/ha; foliage application
Outline: as §2

Apera spica-venti. = experiment: as above; settings: Application herbicide amount 320 g/ha; foliage application
Outline: as §2

Avena fatua = experiment: as above; settings: Application herbicide amount 320 g/ha; foliage application
Outline: as §2

Chenopodium album = experiment: as above; settings: Application herbicide amount 320 g/ha; foliage application
Outline: as §2

Digitaria ciliaris = experiment: as above; settings: Application herbicide amount 320 g/ha; foliage application
Outline: as §2

[3] = system: Echinochloa crus-galli var. crus-galli; experiment: as above; settings: Application herbicide amount 320 g/ha; foliage application
Outline: as §2

Galium spurium = experiment: as above; settings: Application herbicide amount 320 g/ha; foliage application
Outline: as §2

Lolium multiflorum Lam. = experiment: as above; settings: Application herbicide amount 320 g/ha; foliage application
Outline: as §2

Setaria viridis = experiment: as above; settings: Application herbicide amount 320 g/ha; foliage application
Outline: as §2

Stellaria media = experiment: as above; settings: Application herbicide amount 320 g/ha; foliage application
Outline: as §2

Veronica persica = experiment: as above; settings: Application herbicide amount 320 g/ha; foliage application
Outline: as §2

[4] = system: Beta vulgaris ssp. vulgaris; experiment: Test Example 4: effect on crop by application to foliage (diluvial soil, plastic box); settings: Application herbicide amount 320 g/ha; foliage application
Outline: as §2

Brassica campestris L. = experiment: as above; settings: Application herbicide amount 320 g/ha; foliage application
Outline: as §2

Glycine max = experiment: as above; settings: Application herbicide amount 320 g/ha; foliage application
Outline: as §2

Triticum aestivum = experiment: as above; settings: Application herbicide amount 320 g/ha; foliage application
Outline: as §2

Zea mays = experiment: as above; settings: Application herbicide amount 320 g/ha; foliage application
Outline: as §2

[5] = system: directly sowed Oryza sativa; experiment: as above; settings: Application herbicide amount 320 g/ha; foliage application
Outline: as §2

## COc1cc(OC)cc(-c2nnc3c(C(=O)Nc4nnco4)ccc(C(F)(F)F)n23)c1 [1-148]
[1]
  A: Echinochloa oryzicola Vasing. (herbicidal effect grade): 5 (Herbicidal ratio of 90% or more (almost completely withered))
Monochoria vaginalis
  C: Monochoria vaginalis (herbicidal effect grade): 5 (Herbicidal ratio of 90% or more (almost completely withered))
Scirpus juncoides
  B: Scirpus juncoides (herbicidal effect grade): 5 (Herbicidal ratio of 90% or more (almost completely withered))
[2]
  a: transplanted Oryza sativa (effect on crop grade): 4 (Herbicidal ratio of 70% or more and less than 90%)
Abutilon theophrasti
  M (Abutilon theophrasti) herbicidal effect grade: 3 (Herbicidal ratio of 40% or more and less than 70%)
Alopecurus myosuroides
  J (Alopecurus myosuroides) herbicidal effect grade: 1 (Herbicidal ratio of 5% or more and less than 20%)
Amaranthus retroflexus
  N (Amaranthus retroflexus) herbicidal effect grade: 5 (Herbicidal ratio of 90% or more (almost completely withered))
Apera spica-venti.
  L (Apera spica-venti.) herbicidal effect grade: 2 (Herbicidal ratio of 20% or more and less than 40%)
Avena fatua
  I (Avena fatua) herbicidal effect grade: 1 (Herbicidal ratio of 5% or more and less than 20%)
Chenopodium album
  O (Chenopodium album) herbicidal effect grade: 5 (Herbicidal ratio of 90% or more (almost completely withered))
Digitaria ciliaris
  F (Digitaria ciliaris) herbicidal effect grade: 4 (Herbicidal ratio of 70% or more and less than 90%)
[3]
  H (Echinochloa crus-galli var. crus-galli) herbicidal effect grade: 5 (Herbicidal ratio of 90% or more (almost completely withered))
Galium spurium
  Q (Galium spurium) herbicidal effect grade: 4 (Herbicidal ratio of 70% or more and less than 90%)
Lolium multiflorum Lam.
  K (Lolium multiflorum Lam.) herbicidal effect grade: 3 (Herbicidal ratio of 40% or more and less than 70%)
Setaria viridis
  G (Setaria viridis) herbicidal effect grade: 3 (Herbicidal ratio of 40% or more and less than 70%)
Stellaria media
  P (Stellaria media) herbicidal effect grade: 5 (Herbicidal ratio of 90% or more (almost completely withered))
Veronica persica
  R (Veronica persica) herbicidal effect grade: 5 (Herbicidal ratio of 90% or more (almost completely withered))
[4]
  f (Beta vulgaris ssp. vulgaris) effect on crop grade: 5 (Herbicidal ratio of 90% or more (almost completely withered))
Brassica campestris L.
  g (Brassica campestris L.) effect on crop grade: 4 (Herbicidal ratio of 70% or more and less than 90%)
Glycine max
  d (Glycine max) effect on crop grade: 3 (Herbicidal ratio of 40% or more and less than 70%)
Triticum aestivum
  e (Triticum aestivum) effect on crop grade: 0 (Herbicidal ratio of 5% or less (almost no effect))
Zea mays
  c (Zea mays) effect on crop grade: 0 (Herbicidal ratio of 5% or less (almost no effect))
[5]
  b (directly sowed Oryza sativa) effect on crop grade: 3 (Herbicidal ratio of 40% or more and less than 70%)

Reference: patent publication US9708314B2, “Heterocyclic amide compound” (NISSAN CHEMICAL INDUSTRIES, LTD., priority 2013, dated 2017)
